Results on four compounds are retold here after publication PMC3682882 (BMC Pharmacology & Toxicology, 2013).

The subject of data set [1] is subjects with T2DM. Description: Clinical safety and tolerability (adverse events, laboratory parameters, vital signs). To be noted: N = 13. It counts as in vivo, human. As for the experimental part:
(§1) For each treatment period, subjects were admitted to the clinical facility on the evening of Day -1 to undergo check-in procedures including a physical examination, 12-lead ECG, vital signs, clinical laboratory tests (chemistry, hematology and urinalysis), lactic acid measurement, fasting blood glucose measurement, alcohol screen, drugs of abuse screen and pregnancy test (if applicable). On each study day morning, a fasting blood sugar measurement was determined by glucose monitor. On Days 1 and 2, vital signs and a 12-lead ECG were recorded. Samples for clinical laboratory measure were also taken on Days 1 and 3. Subjects returned to the clinic 7–10 days following the last dosing day for a follow-up physical examination and laboratory evaluation. During the between-treatment intervals, subjects were provided with glucose monitors to measure fasting blood glucose concentrations; subjects were instructed as to how to recognize and treat symptoms of hypoglycemia. Adverse events were monitored throughout the entire study (randomization to follow-up visit). Any adverse events reported during the study were assessed by the investigator for intensity (mild, moderate, severe) and relationship to the study drug (causality). Where possible, all adverse events were followed until stabilization, resolution, or until the event was otherwise explained.

For data set [2], the system named is subjects with T2DM. Nature of the data set: Lactic acid concentration by treatment. It counts as in vivo, human. As to conditions: during the three day treatment period. As for the experimental part: as §1
Data set [3] has as its system subjects with T2DM. Nature of the data set: Fasting plasma glucose change from baseline. Type of data set: in vivo, human. To be noted: baseline pre-dose Day 1 to Day 2 and Day 3. As for the experimental part:
FPG concentrations were collected on Day -1, 1, 2 and 3. Changes in plasma glucose from baseline (Day 1) to Day 2 and 3 were calculated.

The test system of data set [4] is subjects with T2DM. Description: Fluid intake, urine volume and fluid balance. Type of data set: in vivo, human. To be noted: Day 1, 0–24-hour interval, intake minus output. From the text: Total fluid intake, urine volume, and fluid balance (intake minus output) were summarized over the 0–24-hour interval of Day 1 and Day 2 and the 0–12-hour interval of Day 3 of each treatment period.

The conditions of data set [5]: cited from earlier work.
Data set [6] deals with subjects with T2DM. Nature of the data set: Percent of filtered glucose excreted in the urine. Type of data set: in vivo, human. To be noted: for percent filtered glucose excreted in urine, max / percent filtered glucose excreted in urine, mean (SD) / percent filtered glucose excreted in urine, median / percent filtered glucose excreted in urine, min: Day 2, N = 13; for percent of filtered glucose excreted in the urine, mean: combined 24 hour collection, Day 2. Here is the method:
Creatinine clearance (CLcr) was calculated on Day 2 and used to determine the percent of filtered glucose load excreted in urine. By using the urine collections on Day 2, CLcr was calculated as follows:
Clcr=totalamountofurinecreatinine0-xxhinterval/nearestassociatedserumcreatinine=urinecreatininemg/xxhours/serumcreatininemg/dL*100mL/dL/xx*60minutes/xxhours,
where urine creatinine (mg/xx hours) is the amount of […] excreted in a xx-hour period. Urine creatinine was calculated by multiplying the urine creatinine concentration by the urine volume (mL) for a 0-xxh time interval as follows:
urinecreatininemg/xxhours=urinecreatinineconcentrationmg/dL*intervalvolumemL/100mL/dL.
Percent of filtered glucose excreted in the urine was estimated for all collection intervals on Day 2 as follows:
GlucoseAmountExcreted/Clcr*PG*TimeIntervalorUrineglucosemg/dL*SerumCreatininemg/dL/urinecreatininemg/dL*PGmg/dL
where glucose amount excreted is the amount of glucose excreted during the xx-hour period, and CLcr is calculated for the xx-hour time interval. PG is the plasma glucose concentration reported closest to the midpoint of the time interval. Because only pre-dose PG was collected in this study, the pre-dose PG on Day 2 was used. Time interval is the number of minutes of urine collection for that interval.

Data set [7] has as its system subjects with T2DM. Nature of the data set: 24-hour urine glucose excretion in subjects with T2DM. It counts as in vivo, human. As for the experimental part: Urine was collected on Days 1 to 3 of each treatment period, and urine glucose concentrations were analyzed for the following intervals: 0–4 hours, 4–8 hours, 8–12 hours and 12–24 hours. The quantity of glucose and creatinine excreted in urine was determined by multiplying the urine glucose or creatinine concentration for each time interval by the volume of urine for the corresponding collection interval. The total 24-hour quantity of glucose excreted in urine on Day 2 was calculated by adding the amounts collected during each interval. Urine glucose and creatinine amounts were summarized for each collected interval and for the total 24-hour collection period.

A short description of data set [8]: Statistical comparison of PK parameters with and without co-administered drug (drug-drug interaction). Type of data set: in vivo, human. As for the experimental part:
Safety and PD parameters were summarized using descriptive statistics. […] The PROC MIXED from SAS (Version 8.2, Cary, NC, USA) was used to fit the model. The estimates and the 90% CI were exponentiated in order to obtain the ratio of geometric means and its CI. The assumptions underlying the model were assessed by visual inspection of residual plots. […] Tmax was analysed non-parametrically using Hodges–Lehmann method.

Data set [9] can be described thus: clinical. From the text:
Subjects were randomized to receive one of two treatment sequences depicted in Table 1. […] The last dose of drug for each study period was before breakfast on day 3. […] On the evening before each treatment period, subjects were admitted and confined to the clinical site for the duration of the 3-day treatment period. Pharmacokinetic (PK), pharmacodynamic (PD; urine glucose and FPG), and safety (adverse events, vital signs, ECG, clinical laboratory parameters including lactic acid) assessments were performed at check-in and throughout the treatment periods. For each treatment period, the PK sampling occurred on Day 3.
All sample times are relative to the time of the administration of the first dose of study medication on Day 3 of each period. […] Blood samples for remogliflozin etabonate, remogliflozin and GSK279782 were collected into tubes containing potassium-oxalate/ sodium fluoride, placed on ice and centrifuged at approximately 3000 rpm for 10 minutes at approximately 4°C. The harvested plasma was frozen at -70°C until analysis for remogliflozin etabonate, remogliflozin and GSK279782 concentrations.
The concentrations of remogliflozin etabonate, remogliflozin, and GSK279782 in deproteinized plasma samples and standards were determined by high-performance liquid chromatography (HPLC) with tandem mass spectrometry (MS/MS) using isotopically labelled internal standards ([^2H7]- remogliflozin etabonate, [^2H7]- remogliflozin and [^2H7]-GSK279782 as previously described.
Plasma proteins from a […] plasma aliquot were precipitated using acetonitrile containing the internal standard (200 ng mL-1). Samples were vortex mixed then centrifuged. The resulting supernatant was transferred and mixed with […] of HFBA buffer (water containing 10 mM ammonium acetate and 0.26% (v/v) of heptofluorobutyric acid) prior to injection. HPLC was performed on a Shimadzu LC-10A HPLC system. Chromatography was performed on a MAC-MOD Ace 3 C18, 4.6 × 50 mm column at a flow rate of 1.0 mL min-1. An isocratic mobile phase elution with 82:18 (v/v) HFBA buffer : Acetonitrile was used. Samples were analysed in positive ion mode by Turbo Ionspray LC/MS/MS with a PE/Sciex API 3000. The calibration range was 20 to 5000 ng mL-1. Performance of the method was assessed during a 3 day validation study using quality control samples at 5 concentrations 20, 80, 500, 4000 and 5000 ng mL-1.
Actual elapsed time from dosing was used to estimate all individual plasma PK parameters.
• Cmax and tmax were the actual observed values.
• AUC(0–12) or AUC(0–last) was calculated by a combination of linear and logarithmic trapezoidal methods. The linear trapezoidal method was used for all incremental trapezoids arising from increasing concentrations and the logarithmic trapezoidal method was used for those arising from decreasing concentrations.

Data set [10] relates to mice. As to conditions: cited from earlier work.
In data set [11] the test system is panel of metabolic enzymes and transporters, including organic cation transporters. On the set-up: method as in earlier work. As to conditions: panel including organic cation transporters involved with metformin renal secretion; cited from earlier work.
Data set [12] deals with diabetic rodent models. To be noted: several diabetic rodent models; cited from earlier work.
Data set [13] relates to rats. As to conditions: cited from earlier work.
For data set [14], the system named is healthy subjects and subjects with T2DM. Set-up: method as in PMID 21733056, PMID 23668634. As to conditions: single oral doses up to 1000 mg in healthy subjects, up to 1000 mg BID for 2 weeks in T2DM; cited from earlier work.
For data set [15] the following is noted: treatment for 2 weeks, subjects with T2DM; cited from earlier work.
The mark [16] stands for this setting: human, in vivo, 500 mg, AUC(0–12).

Take `CN(C)C(=N)N=C(N)N` [Metformin, reference compound]: in data set [1], the Abdominal pain upper is on record as 0 n (%), the “Any Event” value is on record as 5 (38%) n (%), the Back pain is 2 (15%) n (%) and the Dizziness was 1 (8%) n (%). In data set [1], the Dyspepsia was 0 n (%), the Fatigue was 1 (8%) n (%), the Headache is 2 (15%) n (%) and the Hypoglycemia is 1 (8%) n (%). In addition, in [1], the Muscle spasms is 1 (8%) n (%), the Nasopharyngitis was 0 n (%), the Neck pain is given as 1 (8%) n (%) and the Osteoarthritis is recorded as 0 n (%). In addition, in [1], the Rash was 0 n (%), the Toothache was 1 (8%) n (%) and the Wound is listed as 0 n (%). Also, in [2], the mean lactate concentrations entry is given as “increase or increasing trend”. Also, in data set [3], the “changes in fasting plasma glucose concentrations from baseline” value was “remained relatively stable”. In data set [4], the “fluid balance (median)” value is -775 mL. Besides, in data set [5], the renal excretion is on record as 3 times the glomerular filtration rate. In addition, in data set [6], the “percent filtered glucose excreted in urine, max” value was found to be 4.71%; the “percent filtered glucose excreted in urine, mean (SD)” value is reported as 1.41 (1.52) percent; the “percent filtered glucose excreted in urine, median” value is given as 0.95%; the “percent filtered glucose excreted in urine, min” value is 0.10%. The “percent of filtered glucose excreted in the urine, mean” value in [6] was 1.4%. Moreover, the “effect on urine glucose output” value in data set [7] (Day 2) was “relatively no effect”. In addition, in [7] (Day 2, N = 13), the “24-hour urine glucose, max” value amounted to 43.9 mmol; the “24-hour urine glucose, mean (SD)” value is on record as 13.6 (13.4) mmol; the “24-hour urine glucose, median” value is 10.9 mmol; the “24-hour urine glucose, min” value was determined as 1.1 mmol. The “effect of remogliflozin etabonate on PK parameters” value in [8] (metformin PK with MET + RE vs MET) was “no effect”. Further, the AUC(0-t) in data set [9] (setting [16]) worked out at 7140 ng·h/mL. The Cmax in data set [9] (human, in vivo) worked out at 1020 ng/mL. Moreover, the Tmax in data set [9] (plasma, Day 3, MET BID, median (range)) is reported as 4.0 (1.0 - 6.0) h.
Regarding `CCOC(=O)OC[C@H]1O[C@@H](Oc2nn(C(C)C)c(C)c2Cc2ccc(OC(C)C)cc2)[C@H](O)[C@@H](O)[C@@H]1O` [Remogliflozin etabonate], in [1], the Abdominal pain upper is 1 (8%) n (%), the “Any Event” value was 2 (15%) n (%), the Back pain is given as 0 n (%) and the Dizziness is on record as 0 n (%). Further, in [1], the Dyspepsia is on record as 0 n (%), the Fatigue is listed as 0 n (%), the Headache is reported as 0 n (%) and the Hypoglycemia was 0 n (%). Further, in data set [1], the Muscle spasms is recorded as 1 (8%) n (%), the Nasopharyngitis is 0 n (%), the Neck pain is on record as 0 n (%) and the Osteoarthritis was 0 n (%). In addition, in data set [1], the Rash is reported as 0 n (%), the Toothache is reported as 0 n (%) and the Wound is 0 n (%). In addition, the urinary glucose excretion result in data set [10] was “increase urinary glucose excretion in a dose-dependent manner”. Moreover, the mean lactate concentrations result in data set [2] is reported as “unchanged or decreased slightly”. Also, the “changes in fasting plasma glucose concentrations from baseline” value in data set [3] is “small decreases”. In addition, the “fluid balance (median)” value in [4] is given as -1145 mL. Also, in data set [11], the “inhibition of metabolic enzymes and transporters” value was “lack of inhibition”. The antidiabetic efficacy result in data set [12] was “exhibit antidiabetic efficacy”. Further, in data set [6], the “percent filtered glucose excreted in urine, max” value is recorded as 61.3%; the “percent filtered glucose excreted in urine, mean (SD)” value was 51.3 (7.02) percent; the “percent filtered glucose excreted in urine, median” value turned out to be 51.8%; the “percent filtered glucose excreted in urine, min” value is listed as 38.4%. Further, the “percent of filtered glucose excreted in the urine, mean” value in data set [6] is listed as “approximately 50%”. Besides, in data set [7] (Day 2, N = 13), the “24-hour urine glucose, max” value is recorded as 796 mmol; the “24-hour urine glucose, median” value is given as 497 mmol; the “24-hour urine glucose, min” value is given as 384 mmol. In [8] (MET + RE / RE), the “AUC(0-last) point estimate (GLSM Ratio)” value is recorded as 1.00 and the “Cmax point estimate (GLSM Ratio)” value is 0.85. Further, in data set [8] (MET + RE compared to remogliflozin etabonate alone), the “decrease in Cmax” value was determined as 15%. Moreover, the “effect of metformin on AUC” value in data set [8] (MET + RE vs remogliflozin etabonate alone) is “no effects”. Also, the urinary glucose excretion result in [13] is on record as “increase urinary glucose excretion in a dose-dependent manner”. Also, in data set [9] (human, in vivo), the Tmax was found to be 3 h and the highest concentration (Cmax) was determined as 79.5 ng/mL. Moreover, in data set [9] (human, in vivo, AUC(0–last)), the AUC(0-t) was determined as 98.9 ng·h/mL. In addition, the safety and tolerability entry in data set [14] is “safe and well tolerated”.
Consider `Cc1c(Cc2ccc(OC(C)C)cc2)c(O[C@@H]2O[C@H](CO)[C@@H](O)[C@H](O)[C@H]2O)nn1C(C)C` [Remogliflozin], for which, in data set [11], the “inhibition of metabolic enzymes and transporters” value was “lack of inhibition”. Besides, in [9] (human, in vivo), the Tmax was determined as 3 h and the Cmax was 2690 ng/mL. For the same compound, in [9] (setting [16]), the AUC(0-t) turned out to be 6810 ng·h/mL.
Take `NS(=O)(=O)c1cc2c(cc1Cl)NCNS2(=O)=O` [hydrochlorothiazide]: in data set [15], the “effect on the clearance of metformin” value is “no significant effect”.
